Results published in US20160046618A1, “Cyclopropyl Fused Thiazin-2-Amine Compounds as Beta-Secretase Inhibitors and Methods of Use” (AMGEN INC., priority 2014, published 2016).
Like-named read-outs stand apart in the source and are kept apart here.

Key:
human recombinant BACE1 = human recombinant BACE1 (Homo sapiens (Human), UniProt P56817); assay: In vitro enzymatic BACE1 FRET assay; format: biochemical; conditions: BACE1 FRET enzyme assay; read-out: IC50 IP (μM) BACE1 enzyme
Method: These recombinant proteins were further purified using Ni-NTA affinity chromatography (Qiagen). […] This assay is effectively started by the addition of FRET substrate (50 nM) and the combination is incubated for one hour. The FRET assay is terminated by addition of Tris buffer, which raises the pH to neutrality, and the fluorescence is determined. The FRET substrate is a peptide with commercially available fluorophore and quencher, on opposite sides of the BACE cleavage site. Proteolytic cleavage of the FRET substrate releases quenching of fluorescence (excitation 488 nm and emission 590 nm).

[1] = system: Aβ40 in conditioned medium of cells stably expressing Amyloid Precursor Protein (APP); assay: In vitro BACE-1 cell-based assay (Aβ40 sandwich ELISA); conditions: read-out: IC50 IP (μM) BACE1 cell
Method: In Vitro BACE-1 Cell-Based Assay
The cell-based assay measures inhibition or reduction of Aβ40 in conditioned medium of test compound treated cells expressing amyloid precursor protein. Cells stably expressing Amyloid Precursor Protein (APP) were plated at a density of 40K cells/well in 96 well plates (Costar). The cells were cultivated for 24 hours at 37° C. and 5% CO2 in DMEM supplemented with 10% FBS. The test compounds were then added to cells in 10-point dose response concentrations with the starting concentration being either 100 μM or 10 μM. The compounds were diluted from stock solutions in DMSO and the final DMSO concentration of the test compounds on cells was 0.1%. After 24 h of incubation with the test compounds the supernatant conditioned media was collected and the Aβ40 levels were determined using a sandwich ELISA. The IC50 of the compound was calculated from the percent of control or percent inhibition of Aβ40 as a function of the concentration of the test compound.
The sandwich ELISA to detect Aβ40 was performed in 96 well microtiter plates, which were pre-treated with goat anti-rabbit IgG (Pierce). The capture and detecting antibody pair that were used to detect Aβ40 from cell supernatants were affinity purified pAb40 (Biosource) and biotinylated 6E10 (Signet Labs Inc.), respectively. The optimal concentration for the pAb40 antibody was 3 μg/ml in Superblock/TBS (Pierce) that was supplemented with 0.05% Tween 20 (Sigma). […] Cellular supernatants were incubated with the capture antibody for 3 h at 4° C., followed by 3 wash steps in TBS-tween (0.05%). The detecting antibody incubation was for 2 h at 4° C., again followed by the wash steps as described previously. The final readout of the ELISA is Time-Resolved Fluorescence (counts per minute) using Delfia reagents Streptavidin-Europium and Enhancement solutions (Perkin Elmer) and the Victor 2 multilabel counter (Perkin Elmer).

Recombinant Cat D = Recombinant Cat D (Homo sapiens (Human), UniProt P07339); assay: In vitro enzymatic Cathepsin D (Cat D) FRET assay; format: biochemical; conditions: read-out: IC50 IP (μM) CatD
Chain of Recombinant Cat D (P07339 65-412): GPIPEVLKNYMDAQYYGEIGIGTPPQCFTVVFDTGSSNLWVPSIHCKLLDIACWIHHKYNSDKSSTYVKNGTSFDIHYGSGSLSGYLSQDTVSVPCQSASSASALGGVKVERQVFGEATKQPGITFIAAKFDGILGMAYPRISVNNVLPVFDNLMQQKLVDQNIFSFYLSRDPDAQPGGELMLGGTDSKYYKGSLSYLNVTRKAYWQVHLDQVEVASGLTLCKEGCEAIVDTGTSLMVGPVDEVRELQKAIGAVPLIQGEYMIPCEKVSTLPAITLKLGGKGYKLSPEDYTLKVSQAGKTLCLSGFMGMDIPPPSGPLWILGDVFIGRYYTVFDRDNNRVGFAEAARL
Method: In Vitro Enzymatic Cathepsin D (Cat D) FRET (Fluorescence Resonance Energy Transfer) Assay
Recombinant Cat D was expressed in CHO cells. The assay buffer for CathepsinD is 0.05 M citrate pH 3.5, 10% DMSO final, 5 mM CHAPS. […] The assays are effectively started by the addition of different FRET substrates (20 nM for Cat D) and the combination is incubated for one hour. The FRET assay is terminated with by addition of Tris buffer, which raises the pH to neutrality, and the fluorescence is determined. The FRET substrate is a peptide with commercially available fluorophore and quencher, on opposite sides of the BACE cleavage site. The Cat D substrate peptide sequence is based on sequence #1 of Table 1 from Gulnik et al. FEBS Letters v413 p 379-384 1997. Proteolytic cleavage of the FRET substrate releases quenching of fluorescence (Cat D excitation 500 nm and emission 580 nm).

Chain of human recombinant BACE1 (P56817 46-501): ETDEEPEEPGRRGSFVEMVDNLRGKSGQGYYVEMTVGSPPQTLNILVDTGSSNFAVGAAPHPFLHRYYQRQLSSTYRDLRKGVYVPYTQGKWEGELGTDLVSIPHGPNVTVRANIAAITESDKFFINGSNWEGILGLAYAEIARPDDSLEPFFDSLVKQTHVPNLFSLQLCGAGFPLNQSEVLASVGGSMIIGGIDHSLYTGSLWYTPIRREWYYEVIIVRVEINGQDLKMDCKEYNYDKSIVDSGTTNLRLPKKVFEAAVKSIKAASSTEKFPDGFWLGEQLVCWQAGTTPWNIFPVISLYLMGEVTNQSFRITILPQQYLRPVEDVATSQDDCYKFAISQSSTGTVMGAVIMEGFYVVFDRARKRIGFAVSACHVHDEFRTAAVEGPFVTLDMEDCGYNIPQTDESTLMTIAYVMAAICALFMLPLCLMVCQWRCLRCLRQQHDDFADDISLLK

| SMILES | IC50 (human recombinant BACE1) | IC50 ([1]; BACE1 cell-based assay) | IC50 (Recombinant Cat D; Cathepsin D FRET enzyme assay) | IC50 [1] | IC50 (Recombinant Cat D) |
| --- | --- | --- | --- | --- | --- |
| COc1cnc(C(=O)Nc2cc(F)c(F)c([C@@]3(C)N=C(N)S[C@H]4C[C@H]43)c2)cn1 [Example 7, N-(3-((1S,5S,6S)-3-amino-5-methyl-2-thia-4-azabicyclo[4.1.0]hept-3-en-5-yl)-4,5-difluorophenyl)-5-methoxy-2-pyrazinecarboxamide] | 0.0141 µM | 0.00636 µM | 719 µM | – | – |
| Cc1cc(Cl)cnc1C(=O)Nc1cc(F)c(F)c([C@@]2(C)N=C(N)S[C@H]3C[C@H]32)c1 [Example 8, N-(3-((1S,5S,6S)-3-amino-5-methyl-2-thia-4-azabicyclo[4.1.0]hept-3-en-5-yl)-4,5-difluorophenyl)-5-chloro-3-methyl-2-pyridinecarboxamide] | 0.00528 µM | 0.0563 µM | 418 µM | – | – |
| CCOC(=O)[C@]12C[C@H]1[C@@](C)(c1cc(NC(=O)c3ccc(Cl)cn3)cc(F)c1F)N=C(N)S2 [Example 9, (1S,5S,6S)-ethyl 3-amino-5-(5-(5-chloropicolinamido)-2,3-difluorophenyl)-5-methyl-2-thia-4-azabicyclo[4.1.0]hept-3-ene-1-carboxylate] | 0.00679 µM | 0.0232 µM | 366 µM | – | – |
| C[C@]1(c2cc(NC(=O)c3ccc(C#N)cn3)cc(F)c2F)N=C(N)S[C@H]2C[C@H]21 [Example 14, N-(3-((1S,5S,6S)-3-amino-5-methyl-2-thia-4-azabicyclo[4.1.0]hept-3-en-5-yl)-4,5-difluorophenyl)-5-cyano-2-pyridinecarboxamide] | 0.0109 µM | 0.00569 µM | 797 µM | – | – |
| Cc1cc(OC(F)F)cnc1C(=O)Nc1cc(F)c(F)c([C@@]2(C)N=C(N)S[C@H]3C[C@H]32)c1 [Example 15, N-(3-((1S,5S,6S)-3-amino-5-methyl-2-thia-4-azabicyclo[4.1.0]hept-3-en-5-yl)-4,5-difluorophenyl)-5-(difluoromethoxy)-3-methyl-2-pyridinecarboxamide] | 0.0124 µM | 0.00994 µM | 506 µM | – | – |
| COc1cnc(C(=O)Nc2cc(F)c(F)c([C@@]3(CF)N=C(N)S[C@H]4C[C@H]43)c2)cn1 [Example 16, N-(3-((1S,5S,6S)-3-amino-5-(fluoromethyl)-2-thia-4-azabicyclo[4.1.0]hept-3-en-5-yl)-4,5-difluorophenyl)-5-methoxy-2-pyrazinecarboxamide] | 0.0145 µM | 0.00908 µM | 875 µM | – | – |
| COc1cnc(C(=O)Nc2cc(F)c(F)c([C@@]3(CF)N=C(N)S[C@H]4C[C@H]43)c2)c(C)n1 [Example 17, N-(3-((1S,5S,6S)-3-amino-5-(fluoromethyl)-2-thia-4-azabicyclo[4.1.0]hept-3-en-5-yl)-4,5-difluorophenyl)-5-methoxy-3-methyl-2-pyrazinecarboxamide] | 0.026 µM | 0.0548 µM | 863 µM | – | – |
| NC1=N[C@](CF)(c2cc(NC(=O)c3ccc(Cl)cn3)cc(F)c2F)[C@@H]2C[C@@H]2S1 [Example 18, N-(3-((1S,5S,6S)-3-amino-5-(fluoromethyl)-2-thia-4-azabicyclo[4.1.0]hept-3-en-5-yl)-4,5-difluorophenyl)-5-chloropicolinamide] | 0.0172 µM | 0.0169 µM | 34.3 µM | – | – |
| Cc1cc(C#N)cnc1C(=O)Nc1cc(F)c(F)c([C@@]2(C)N=C(N)S[C@H]3C[C@H]32)c1 [Example 19, N-(3-((1S,5S,6S)-3-amino-5-methyl-2-thia-4-azabicyclo[4.1.0]hept-3-en-5-yl)-4,5-difluorophenyl)-5-cyano-3-methyl-2-pyridinecarboxamide] | 0.00545 µM | 0.00431 µM | 669 µM | – | – |
| NC1=N[C@](CF)(c2cc(Nc3ncnc4cc(Cl)cnc34)cc(F)c2F)[C@@H]2C[C@@H]2S1 [Example 22, (1S,5S,6S)-5-(5-((7-Chloropyrido[3,2-d]pyrimidin-4-yl)amino)-2,3-difluorophenyl)-5-(fluoromethyl)-2-thia-4-azabicyclo[4.1.0]hept-3-en-3-amine] | 0.0149 µM | 0.0533 µM | 331 µM | – | – |
| C#C[C@H](C)Oc1cnc(C(=O)Nc2cc(F)c(F)c([C@@]3(C)N=C(N)S[C@@]4(CF)C[C@H]43)c2)c(C)n1 [Example 616, N-(3-((1S,5S,6S)-3-amino-1-(fluoromethyl)-5-methyl-2-thia-4-azabicyclo[4.1.0]hept-3-en-5-yl)-4,5-difluorophenyl)-3-methyl-5-(((1S)-1-methyl-2-propyn-1-yl)oxy)-2-pyrazinecarboxamide] | – | – | – | 0.0329 µM | – |
| C#C[C@H](C)Oc1cnc(C(=O)Nc2cc(F)c(F)c([C@@]3(C)N=C(N)S[C@@]4(COC)C[C@H]43)c2)c(C)n1 [Example 622, N-(3-((1S,5S,6S)-3-amino-1-(methoxymethyl)-5-methyl-2-thia-4-azabicyclo[4.1.0]hept-3-en-5-yl)-4,5-difluorophenyl)-3-methyl-5-(((1S)-1-methyl-2-propyn-1-yl)oxy)-2-pyrazinecarboxamide] | – | – | – | 0.0438 µM | – |
| C#C[C@H](C)Oc1cnc(C(=O)Nc2ccc(F)c([C@@]3(C)N=C(N)S[C@@]4(C(F)F)C[C@@H]34)c2)c(C)c1 [Example 648, N-(3-((1S,5S,6S)-3-amino-1-(difluoromethyl)-5-methyl-2-thia-4-azabicyclo[4.1.0]hept-3-en-5-yl)-4-fluorophenyl)-3-methyl-5-(((1S)-1-methyl-2-propyn-1-yl)oxy)-2-pyridinecarboxamide] | – | – | – | 0.222 µM | – |
| C#CCOc1cnc(C(=O)Nc2ccc(F)c([C@@]3(C)N=C(N)S[C@@]4(CF)C[C@H]43)c2)cn1 [Example 822, N-(3-((1S,5S,6S)-3-amino-1-(fluoromethyl)-5-methyl-2-thia-4-azabicyclo[4.1.0]hept-3-en-5-yl)-4-fluorophenyl)-5-(2-propyn-1-yloxy)-2-pyrazinecarboxamide] | – | – | – | 0.000378 µM | – |
| [2H]C([2H])(C#C)Oc1cnc(C(=O)Nc2cc(F)c(F)c([C@@]3(C)N=C(N)S[C@@]4(COC)C[C@H]43)c2)cn1 [Example 840] | – | – | – | 0.0006 µM | – |
| C[C@]1(c2cc(NC(=O)c3ccc(Cl)cn3)cc(F)c2F)N=C(N)S[C@@]2(C(=O)O)C[C@H]21 [Example 899, Lithium (1S,5S,6S)-3-amino-5-(5-(5-chloropicolinamido)-2,3-difluorophenyl)-5-methyl-2-thia-4-azabicyclo[4.1.0]hept-3-ene-1-carboxylate] | – | – | – | 2.45 µM | – |
| NC1=N[C@](CF)(c2cc(Nc3nccc4nc(OCc5ncco5)cnc34)ccc2F)[C@@H]2C[C@]2(c2c[nH]nn2)S1 [Example 957, N-(3-((1S,5S,6S)-3-amino-5-(fluoromethyl)-1-(1H-1,2,3-triazol-4-yl)-2-thia-4-azabicyclo[4.1.0]hept-3-en-5-yl)-4-fluorophenyl)-2-(1,3-oxazol-2-ylmethoxy)pyrido[3,4-b]pyrazin-5-amine] | – | – | – | 0.00616 µM | – |
| CCOc1cnc(C(=O)Nc2cc(F)c(F)c([C@@]3(C)N=C(N)S[C@@]4(COC)C[C@H]43)c2)cn1 [Example 1038, N-(3-((1S,5S,6S)-3-amino-1-(methoxymethyl)-5-methyl-2-thia-4-azabicyclo[4.1.0]hept-3-en-5-yl)-4,5-difluorophenyl)-5-ethoxy-2-pyrazinecarboxamide] | – | – | – | – | 1300 µM |
| C=CC(C)Oc1cnc(C(=O)Nc2ccc(F)c([C@@]3(C)N=C(N)S[C@@]4(COC)C[C@H]43)c2)cn1 (stereo partly drawn) [Example 1063, N-(3-((1S,5S,6S)-3-amino-1-(methoxymethyl)-5-methyl-2-thia-4-azabicyclo[4.1.0]hept-3-en-5-yl)-4-fluorophenyl)-5-(but-3-en-2-yloxy)pyrazine-2-carboxamide] | – | – | – | 0.1 µM | – |
